Experimental findings from ChEMBL document CHEMBL5104169, “Design and synthesis of mogrol derivatives modified on a ring with anti-inflammatory and anti-proliferative activities” (Bioorg Med Chem Lett, 2022) are described below.

Active and inactive are the calls of the source. No cut-off for these calls is given here.

The test system of data set [1] is NCI-H460. The experiment in a line: Antiproliferative activity against human NCI-H460 cells. Format: functional, cell-based.
Data set [2] concerns A549. Description: Antiproliferative activity against human A549 cells. Format: functional, cell-based.
Data set [3] relates to NCI-H1299. The experiment in a line: Antiproliferative activity against human NCI-H1299 cells. It is filed as functional, cell-based.
The nature of data set [4]: Cytotoxicity against mouse RAW264.7 cells assessed as cell viability at 10 uM measured after 24 hrs by CCK-8 assay relative to control. Format: toxicity, cell-based. The conditions noted are these: read-out: Activity. (Formazan colour is commonly taken as a measure of viable cells.)
In data set [5] the test system is NCI-H1975. The experiment in a line: Antiproliferative activity against human NCI-H1975 cells. It is filed as functional, cell-based.
Data set [6] concerns RAW264.7. The experiment in a line: Cytotoxicity against mouse RAW264.7 cells at 10 uM measured after 24 hrs by CCK-8 assay relative to control. Format: toxicity, cell-based. Particulars: raw264.7, 24 h.
Data set [7] relates to RAW264.7. Description: Inhibition of LPS-induced NO production in mouse RAW264.7 cells at 5 uM relative to control. It is filed as functional.
The test system of data set [8] is RAW264.7. The experiment in a line: Inhibition of LPS-induced NO production in mouse RAW264.7 cells at 10 uM relative to control. It is filed as functional.
In data set [9] the test system is RAW264.7. The experiment in a line: Antiinflammatory activity against mouse RAW264.7 cells assessed as decrease in LPS-induced IL-6 level at 10 uM measured by ELISA assay. Format: functional, cell-based. (In general: In an ELISA, binding on a coated surface is turned into a signal by an enzyme label.)
Data set [10] relates to RAW264.7. Description: Antiinflammatory activity against LPS-induced mouse RAW264.7 cells assessed as decrease in phosphorylation levels of p65 at 2.5 to 10 uM and measured by Western blot analysis. Format: functional, cell-based. The conditions noted are these: dose 2.5-10 µM. (Immunoblotting shows a protein as a band on a membrane.)
The test system of data set [11] is RAW264.7. The experiment in a line: Inhibition of LPS-induced NO production in mouse RAW264.7 cells. Format: functional, cell-based.
In data set [12] the test system is RAW264.7. Description: Antiinflammatory activity against LPS-induced mouse RAW264.7 cells assessed as decrease in iNOS expression at 2.5 to 10 uM and measured by Western blot analysis. It is filed as functional, cell-based. Particulars: dose 2.5-10 µM.
The subject of data set [13] is RAW264.7. The experiment in a line: Antiinflammatory activity against mouse RAW264.7 cells assessed as decrease in LPS-induced TNF-alpha level at 10 uM measured by ELISA assay. Format: functional, cell-based.
In data set [14] the test system is RAW264.7. The experiment in a line: Antiinflammatory activity against LPS-induced mouse RAW264.7 cells assessed as decrease in phosphorylation levels of IkBalpha at 2.5 to 10 uM and measured by Western blot analysis. It is filed as functional, cell-based. Particulars: dose 2.5-10 µM.

A word on the IC50: it is the concentration at which inhibition is half-maximal. What is called inhibition is the percentage by which the read-out fell short of the control. A low value points to a response near the control.

In the case of `C[C@H](CC[C@@H](O)C(C)(C)O)[C@H]1CC[C@@]2(C)[C@@H]3CC=C4[C@@H](Cc5c([nH]c6ccccc56)C4(C)C)[C@]3(C)[C@H](O)C[C@]12C`, the IC50 is 18.3 µM in data set [1], 16.4 µM in data set [2], 22.4 µM in [3] and 23.2 µM in data set [5]. Besides, the viability at 24 h, 10 µM in data set [4] was over 95%.
`C[C@H](CC[C@@H](O)C(C)(C)O)[C@H]1CC[C@@]2(C)[C@@H]3CC=C4[C@@H](Cc5cc6ccncc6nc5C4(C)C)[C@]3(C)[C@H](O)C[C@]12C`: the IC50 in data set [1] was 23.4 µM; in [2], over 30 µM; in data set [3] it was over 30 µM; in data set [5], over 30 µM. Moreover, the Activity result in data set [6] is given as “Toxic”.
In the case of `C[C@H](CC[C@@H](O)C(C)(C)O)[C@H]1CC[C@@]2(C)[C@@H]3CC=C4[C@@H](Cc5c([nH]c6ccc(Cl)cc56)C4(C)C)[C@]3(C)[C@H](O)C[C@]12C`, the IC50 is 23.1 µM in [1], over 30 µM in data set [2], 19.1 µM in [3] and 18.5 µM in [5]. For the same compound, the viability at 24 h, 10 µM in data set [4] was over 95%.
Regarding `C[C@H](CC[C@@H](O)C(C)(C)O)[C@H]1CC[C@@]2(C)[C@@H]3CC=C4[C@@H](Cc5cc6cc(Cl)ccc6nc5C4(C)C)[C@]3(C)[C@H](O)C[C@]12C`, the half-maximal inhibitory concentration (IC50) in data set [1] worked out at 19 µM; in [2] it was 8.22 µM; in [3], 13.2 µM; in [5], 16.4 µM. The Activity entry in data set [6] is “Toxic”.
The corresponding values for `C[C@H](CC[C@@H](O)C(C)(C)O)[C@H]1CC[C@@]2(C)[C@@H]3CC=C4[C@@H](C/C(=C\c5ccc(Cl)cc5)C(=O)C4(C)C)[C@]3(C)[C@H](O)C[C@]12C` are 9.94 µM, 8.26 µM, over 30 µM, 13.6 µM and “Toxic”.
As for `O=c1[nH]cc(F)c(=O)[nH]1` [FLUOROURACIL], the IC50 in data set [2] is 1.65 µM; in data set [3], 3.53 µM; in [5], 1.98 µM.
In the case of `Cc1ccc(/C=C2\C[C@@H]3C(=CC[C@@H]4[C@@]3(C)[C@H](O)C[C@]3(C)[C@@H]([C@H](C)CC[C@@H](O)C(C)(C)O)CC[C@@]43C)C(C)(C)C2=O)cc1`, the IC50 in [1] was 13.7 µM; in data set [2], 9.91 µM; in data set [3], over 30 µM; in [5], 15.1 µM. Besides, the Activity result in data set [6] is “Toxic”.
For `CC(C)c1ccc2[nH]c3c(c2c1)C[C@@H]1C(=CC[C@@H]2[C@@]1(C)[C@H](O)C[C@]1(C)[C@@H]([C@H](C)CC[C@@H](O)C(C)(C)O)CC[C@@]21C)C3(C)C`, the IC50 in [1] was 25 µM; in data set [2], 25.4 µM; in [3], over 30 µM; in data set [5], over 30 µM. For the same compound, the viability at 24 h, 10 µM in [4] was over 95%.
Regarding `C[C@H](CC[C@@H](O)C(C)(C)O)[C@H]1CC[C@@]2(C)[C@@H]3CC=C4[C@@H](C/C(=C\c5ccccc5)C(=O)C4(C)C)[C@]3(C)C(=O)C[C@]12C`, the IC50 in data set [1] was 32.5 µM; in data set [2] it was 16.1 µM; in [3], over 30 µM; in [5] it was over 30 µM. Besides, the Activity entry in data set [6] is recorded as “Toxic”.
On to `C[C@H](CC[C@@H](O)C(C)(C)O)[C@H]1CC[C@@]2(C)[C@@H]3CC=C4[C@@H](C/C(=C\c5cccnc5)C(=O)C4(C)C)[C@]3(C)[C@H](O)C[C@]12C`, for which the IC50 in [1] worked out at 11.1 µM; in data set [2], 11.1 µM; in data set [3], 14.6 µM; in data set [5] it was 13.4 µM. In addition, the Activity entry in [6] is on record as “Toxic”.
In the case of `Cc1ccc(/C=C2\C[C@@H]3C(=CC[C@@H]4[C@@]3(C)C(=O)C[C@]3(C)[C@@H]([C@H](C)CC[C@@H](O)C(C)(C)O)CC[C@@]43C)C(C)(C)C2=O)cc1`, the IC50 in [1] was 24.3 µM; in data set [2], 22.1 µM; in [3], over 30 µM; in [5], 19.1 µM. The Activity result in [6] is “Toxic”.
For the compound `C=C1C(=O)O[C@@H]2C3O[C@]3(C)CC/C=C(\C)CC[C@@H]12` (stereo not given in full), in data set [7], 5 µM produced 91.9% inhibition.
In the case of `CC(C)c1ccc2[nH]c3c(c2c1)C[C@@H]1C(=CC[C@@H]2[C@@]1(C)C(=O)C[C@]1(C)[C@@H]([C@H](C)CC[C@@H](O)C(C)(C)O)CC[C@@]21C)C3(C)C`, the IC50 in data set [1] is over 30 µM; in data set [2], 22.2 µM; in [3], over 30 µM; in data set [5], over 30 µM. The compound further showed an inhibition at 10 µM in data set [8] of 57.4%.
In the case of `Cc1ccc2[nH]c3c(c2c1)C[C@@H]1C(=CC[C@@H]2[C@@]1(C)[C@H](O)C[C@]1(C)[C@@H]([C@H](C)CC[C@@H](O)C(C)(C)O)CC[C@@]21C)C3(C)C`, the IC50 in [1] is 31.5 µM; in [2] it was 22.6 µM; in [3], over 30 µM; in data set [5] it was over 30 µM. At 10 µM the inhibition in data set [8] was 45.1%.
As for `C[C@H](CC[C@@H](O)C(C)(C)O)[C@H]1CC[C@@]2(C)[C@@H]3CC=C4[C@@H](Cc5cc6cc(F)ccc6nc5C4(C)C)[C@]3(C)[C@H](O)C[C@]12C`, the IC50 stood at 16.3 µM in data set [1], 7.55 µM in data set [2], 11.7 µM in data set [3] and 14.7 µM in data set [5]. Further, the Activity result in [6] was “Toxic”.
For the compound `C[C@H](CC[C@@H](O)C(C)(C)O)[C@H]1CC[C@@]2(C)[C@@H]3CC=C4[C@@H](Cc5c([nH]c6ccccc56)C4(C)C)[C@]3(C)C(=O)C[C@]12C`, the IC50 was over 30 µM in [1], 27.9 µM in [2], over 30 µM in data set [3] and over 30 µM in data set [5]. For the same compound, the inhibition at 10 µM in [8] amounted to 78.2%.
As for `C[C@H](CC[C@@H](O)C(C)(C)O)[C@H]1CC[C@@]2(C)[C@@H]3CC=C4[C@@H](C/C(=C\c5cccnc5)C(=O)C4(C)C)[C@]3(C)C(=O)C[C@]12C`, the IC50 in data set [1] was 16.5 µM; in [2], 12.6 µM; in data set [3], 16.4 µM; in data set [5], 12.7 µM. Besides, the Activity entry in [6] is “Toxic”.
Turning to `COc1ccc2[nH]c3c(c2c1)C[C@@H]1C(=CC[C@@H]2[C@@]1(C)C(=O)C[C@]1(C)[C@@H]([C@H](C)CC[C@@H](O)C(C)(C)O)CC[C@@]21C)C3(C)C`, the outcome in data set [9], in [10], in data set [12], in [13] and in data set [14] was Active. For the same compound, the IC50 is over 30 µM in data set [1]; 5.05 µM in [11]; 21.9 µM in [2]; over 30 µM in [3]; 19 µM in data set [5]. Further, 10 µM produced 87.6% inhibition in [8].
With `C[C@H](CC[C@@H](O)C(C)(C)O)[C@H]1CC[C@@]2(C)[C@@H]3CC=C4[C@@H](Cc5cc6cc(Br)ccc6nc5C4(C)C)[C@]3(C)[C@H](O)C[C@]12C`, the IC50 is over 30 µM in [1], 8.99 µM in data set [2], 27 µM in data set [3] and 25.7 µM in data set [5]. Moreover, the Activity entry in [6] was “Toxic”.
Turning to `C[C@H](CC[C@@H](O)C(C)(C)O)[C@H]1CC[C@@]2(C)[C@@H]3CC=C4[C@@H](Cc5cc6ccccc6nc5C4(C)C)[C@]3(C)[C@H](O)C[C@]12C`, the IC50 is 18.9 µM in data set [1], 17.2 µM in data set [2], 20 µM in [3] and 18.7 µM in data set [5]. For the same compound, the Activity result in data set [6] is recorded as “Toxic”.
On to `C[C@H](CC[C@@H](O)C(C)(C)O)[C@H]1CC[C@@]2(C)[C@@H]3CC=C4[C@@H](CC[C@H](O)C4(C)C)[C@]3(C)[C@H](O)C[C@]12C` [MOGROL], for which the IC50 is over 100 µM in data set [1], 28.6 µM in [2], over 100 µM in [3] and 87.1 µM in data set [5]. For the same compound, the inhibition at 10 µM in [8] was 17.4%.
As for `C[C@H](CC[C@@H](O)C(C)(C)O)[C@H]1CC[C@@]2(C)[C@@H]3CC=C4[C@@H](C/C(=C\c5ccccc5)C(=O)C4(C)C)[C@]3(C)[C@H](O)C[C@]12C`, the IC50 in data set [1] amounted to 16 µM; in data set [2] it was 10.7 µM; in data set [3], 12 µM; in [5], 13.6 µM. Moreover, the Activity entry in [6] is given as “Toxic”.
In the same order, the values of `C[C@H](CC[C@@H](O)C(C)(C)O)[C@H]1CC[C@@]2(C)[C@@H]3CC=C4[C@@H](C/C(=C\c5ccncc5)C(=O)C4(C)C)[C@]3(C)[C@H](O)C[C@]12C` are 15 µM, 11.6 µM, 13.3 µM, 12.7 µM and “Toxic”.
As to `Cc1ccc2[nH]c3c(c2c1)C[C@@H]1C(=CC[C@@H]2[C@@]1(C)C(=O)C[C@]1(C)[C@@H]([C@H](C)CC[C@@H](O)C(C)(C)O)CC[C@@]21C)C3(C)C`, the IC50 in data set [1] is over 30 µM; in data set [2] it was 16.5 µM; in [3], 18.7 µM; in [5] it was over 30 µM. Also, the inhibition at 10 µM in data set [8] was 56.6%.
